{"source": "patent US20240074473A1", "about": "“METHOD FOR INDUCING HYPERTROPHIC MUSCLE FIBERS FOR INDUSTRIAL MEAT PRODUCTION” (Yeda Research and Development Co. Ltd., priority 2021, published 2024)", "key": {"[1]": {"experiment": "Risk categorization of cell culture media ingredients", "text": "Category 1: These cell culture media components are food ingredients/additives that are GRAS or permitted by federal regulation without limitation on use. Exemplary compounds in this category include innocuous ingredients such as sugars, pH buffers, water soluble vitamins, and common antioxidants such as tocopherols.\n(§1) Category 2: These cell culture media components are common dietary nutrients and are anticipated to have GRAS status for food use or be permitted by regulation for addition to food. Examples of such compounds include most of the inorganic salts and macronutrients that are present within the cell culture media. […] Majority of nutrients present within the poultry cell-based meat may be readily measured using common validated methods for food composition testing. Batch analyses of multiple lots of the finished product may be obtained to validate the above assumptions. In some instances, consideration of established safe levels (e.g., ADI, UL) derived from a relevant authoritative body (e.g., U.S. FDA, EFSA, JECFA, FSANZ, U.S. EPA) may be leveraged to support safety. If comparisons of anticipated dietary intakes relative to an authoritative reference intake value is used, consideration of additive intakes from all dietary sources may be considered. In the absence of an authoritative reference intake value, published NOAELs from animal toxicology studies may be used to evaluate safety using standard scientific procedures for food safety evaluation. A margin of exposure (MoE) of 100-fold or greater between the NOAEL and estimated dietary intakes from food exposures is typically considered adequate to support safety. in situations where the MoE is <100-fold, additional measures for further reduction of the media component may be necessary, or further characterization of intraspecies/interspecies differences in metabolism may be necessary. These situations also require careful consideration of the regulatory status on a case-by basis (e.g., premarket approval as a food additive or GRAS evaluation required).\nFor example, situations where the compound is not detectable in finished product or is present at equivalent levels in comparator foods, compounds that are thermo-labile and will be digested during cooking, and/or compounds that are expected to be digested to innocuous compounds following ingestion. Examples of compounds meeting the aforementioned conditions would include recombinant growth factors and serum components. For Category 3 substances a final consideration in the safety assessment process may involve hazard characterization of the potential for a substance to produce toxic biological effects outside of the endpoints measured in a sub-chronic rat toxicity study. Substances with biological activity may require additional hazard characterization related to reproductive and developmental toxicity, or immunotoxicity. Considerations for allergenicity, biological effects in humans (e.g., effects on blood pressure), and synergistic effects with other media components also may be evaluated. […] Examples of category 3 components include recombinant proteins and animal serum."}, "[2]": {"experiment": "Margin of estimated intake below NOAEL of rat toxicity study", "type": "in vivo", "text": "as §1"}, "[3]": {"experiment": "Maximum estimated dietary exposure to media ingredients per 100 g serving", "settings": "assumption of complete transfer of media components to the finished product on a wt/wt basis"}, "primary mouse myoblasts [4]": {"tested_on": "primary mouse myoblasts", "experiment": "Fusion index of primary mouse myoblasts (MyHC immunostaining)", "type": "cell-based", "settings": "co-treatment with ERKi and 5 uM KN93; bi- and tri-nucleated MyHC+ cells maintained", "method": "(§2) Isolation of and treatment of primary myoblasts. Primary mouse myoblasts were isolated from gastrocnemius muscle using trypsin-tissue dissociation. Briefly, muscle tissues were incubated in Trypsin B (0.25%, Biological Industries) and subjected to mechanical dissociation with a serological pipet. Supernatants were strained and centrifuged. Pellets were grown resuspended in BioAmf-2 media (Biological Industries, Israel) and plated on 10% Matrigel (BD Biosciences)-coated plates at 37° and 5% CO2. For all in vitro experiments, proliferation medium was Bio-Amf2 (Biological Industries, Israel) and Differentiation medium (DM) was DMEM 2% Horse Serum (HS) with 1% Pen/Strep. For fusion assays, cells were trypsinized with Trypsin C (0.05%, Biological Industries) and subjected to two rounds of preplating on uncoated plates to reduce the number of fibroblasts. Cells were plated at a density of 8×10^3 per well in 10% Matrigel-coated 96-well plates in proliferation medium for 24 hours. The following day, proliferation media was replaced either with proliferation media or with DM containing DMSO (Ctrl) or 1 μM ERK1/2 inhibitor (ERKi; SCH772984, Cayman Chemicals), […] RXR antagonist (RXRi; HX-531, Cayman Chemicals), […] Ryanodine receptor antagonist (RYRi; Dantrolene, Cayman Chemicals), 5 μM CaMKII inhibitor (CaMKIIi; KN93, Cayman Chemicals), or with DM for controls.\n(§3) Immunofluorescence staining. First passage primary myoblasts isolated from various strains (indicated in figure legends) were plated in 96-well plates or chamber slides and treated as previously described. The cells were fixed with ice cold 4% PFA in PBS for 10 minutes, permeabilized with 0.5% Triton X-100 in PBS for 6 minutes, and blocked in PBS with 0.025% tween, 10% normal horse serum and 10% normal goat serum for 1 hour at room temperature. Primary antibody incubation was done in blocking buffer overnight at 4 degrees, with the following antibodies: Myosin Heavy Chain (MyHC, MF20, DSHB hybridoma supernatant 1:10, or MY-32 ABCAM ab51263 1:400), Myogenin (MYOG sc-13137 SCBT 1:200), pHistone 3 (PH3, ab47297 ABCAM 1:1000), Ki-67 (Cell Marque #275R), RYR (ab2868 ABCAM 1:100), and pCaMKII (SIGMA SAB4504356 1:100). Cells were washed 3 times in PBS with 0.025% tween and then incubated with appropriate secondary antibodies in PBS 1 hour. Where indicated, nuclei were either labeled with DAPI (SIGMA D9542, 5 ug/ml) or Hoechst 33342 (Thermo scientific #62249, 1:2000). Fixed cells at 24 hours post treatment with indicated inhibitors were imaged using the Nikon Eclipse Ti2 microscope (further described in microscopy section). All analysis was performed on at least 1000 nuclei. […]\nQuantification of fusion index. Following immunostaining and imaging, a fusion index was quantified by manually identifying nuclei found in a MyHC positive cell with at least 2 nuclei. Then the values were expressed as a percentage of the total nuclei per field. Briefly, in Figures where fusion index is stratified into subgroups of fiber size, the nuclei number in MyHC positive cell was manually quantified in a given field and stratified into groups of mononucleated, bi-nucleated myotubes, myotubes with 3-10 nuclei and myotubes with greater than 10 nuclei. […] Fields were analyzed hourly, and nuclei per cell was quantified and stratified into mononucleated, bi-nucleated, tri-nucleated and cells with ≥4 nuclei."}, "CaMKII": {"tested_on": "CaMKII", "experiment": "Western blot of CaMKII activation (p-CaMKII T287) in myoblasts", "type": "cell-based, mouse", "settings": "co-treatment with ERKi and 5 uM KN93, 24 hrs", "method": "Western Blot analysis. Cultured cells and whole tissues extracts were prepared with RIPA buffer supplemented with protease inhibitor cocktail (SIGMA P8340), and phosphatase inhibitor cocktails (SIGMA P5726 and P0044). Western blotting was performed using the Mini-PROTEAN Tetra Cell electrophoresis system, and transferred to PVDF membranes. The following primary antibodies concentrations were used p-CAMKII 1:1000 (Abcam ab182647), CaMKII 1:1000 (Cell Signaling 3362), GAPDH 1:10,000 (Abcam ab181602), p-ERK1/2 1:20,000 (SIGMA M9692), ERK1/2 1:40,000 (SIGMA), Myosin Heavy Chain (MF-20 DSHB hybridoma supernatant 1:100) Horseradish peroxidase conjugated secondary anti-mouse, anti-rabbit or anti-goat was used to detect proteins (Jackson Immunology). Western blots were imaged using the Chemidoc Multiplex system (Bio-rad)."}, "primary mouse myoblasts [5]": {"tested_on": "primary mouse myoblasts", "experiment": "MYOG positive nuclei in primary mouse myoblasts (immunofluorescence)", "type": "cell-based", "settings": "co-treatment with 1 μM ERKi, 24 hrs; HX531 20 uM, Dantrolene 50 uM, BAPTA-AM 10 uM, KN93 5 uM", "method": "as §2\nImmunofluorescence staining. First passage primary myoblasts isolated from various strains (indicated in figure legends) were plated in 96-well plates or chamber slides and treated as previously described. The cells were fixed with ice cold 4% PFA in PBS for 10 minutes, permeabilized with 0.5% Triton X-100 in PBS for 6 minutes, and blocked in PBS with 0.025% tween, 10% normal horse serum and 10% normal goat serum for 1 hour at room temperature. Primary antibody incubation was done in blocking buffer overnight at 4 degrees, with the following antibodies: Myosin Heavy Chain (MyHC, MF20, DSHB hybridoma supernatant 1:10, or MY-32 ABCAM ab51263 1:400), Myogenin (MYOG sc-13137 SCBT 1:200), pHistone 3 (PH3, ab47297 ABCAM 1:1000), Ki-67 (Cell Marque #275R), RYR (ab2868 ABCAM 1:100), and pCaMKII (SIGMA SAB4504356 1:100). Cells were washed 3 times in PBS with 0.025% tween and then incubated with appropriate secondary antibodies in PBS 1 hour. Where indicated, nuclei were either labeled with DAPI (SIGMA D9542, 5 ug/ml) or Hoechst 33342 (Thermo scientific #62249, 1:2000). Fixed cells at 24 hours post treatment with indicated inhibitors were imaged using the Nikon Eclipse Ti2 microscope (further described in microscopy section). All analysis was performed on at least 1000 nuclei. For fixed cells following the timecourse with ERKi or DM (FIG. 1B), images were captured with an inverted Olympus IX83 microscope (further details in microscopy section). All imaging analysis were performed on at least 1000 cells."}, "primary mouse myoblasts [6]": {"tested_on": "primary mouse myoblasts", "experiment": "qRT-PCR gene expression in primary mouse myoblasts", "type": "cell-based", "settings": "co-treatment with ERKi and CaMKIIi", "method": "Quantitative real-time PCR (qRT-PCR). Total RNA was isolated using Tri-Reagent (SIGMA) according to the manufacturer's instructions. cDNA was synthesized with the High Capacity cDNA Reverse Transcription Kit (Applied Biosystems according to the manufacturer's instructions. qRT-PCR was performed with SYBR green PCR Master Mix (Applied Biosystems) using the StepOnePlus Real-time PCR system (Applied Biosystems). Values for specific genes were normalize to either Gapdh or Hprt housekeeping control as indicated in Figure legend. Expression was calculated using the ddCT method.\nFirst passage primary mouse derived myoblast were seeded in proliferation media, in equal number in 12-well tissue culture plates that were precoated with 10% Matrigel solution. Following 24 hours to allow for complete attachment, culture media was washed and replaced either with fresh proliferation media (PM), PM supplemented with 1 uM SCH 772984 (ERKi) or differentiation media (DM). After 24 hrs, cells were lysed and RNA was collected. Gene expression analysis was carried out using SYBR green qRT-PCR analysis."}, "primary mouse myoblasts [7]": {"tested_on": "primary mouse myoblasts", "experiment": "Cell motility of myoblasts", "type": "cell-based", "settings": "co-treatment with ERKi and CaMKIIi"}, "primary mouse myoblasts [8]": {"tested_on": "primary mouse myoblasts", "experiment": "Proliferation markers KI-67 and pH3 staining in primary mouse myoblasts", "type": "cell-based", "settings": "co-treatment of ERKi with CaMKIIi", "method": "as §3"}, "[9]": {"settings": "cell culture media ingredient used during meat production"}}, "note": "Read-outs that look alike come from different tables or passages of the source."}
{"smiles": "NCCO", "note": "[MONOETHANOLAMINE]", "values": [{"measurement": "Risk Assessment Category", "setting": "[1]", "value": 2}, {"measurement": "Intakes for a 65 kg adult below NOAEL", "setting": "[2]; rat NOAEL", "value": "kg adult are 128 fold"}, {"measurement": "Maximum Estimated Exposure per 100 g serving", "setting": "[3]", "value": 160, "unit": "mg"}]}
{"smiles": "O=[Se]([O-])[O-].[Na+].[Na+]", "note": "[SODIUM SELENITE (ANHY)]", "values": [{"measurement": "Risk Assessment Category", "setting": "[1]; [9]", "value": 2}, {"measurement": "Intakes for a 65 kg adult below NOAEL", "setting": "[2]; 13 week rat NOAEL", "value": "are 133-fold below 13"}, {"measurement": "Maximum Estimated Exposure per 100 g serving", "setting": "[3]", "value": 0.19, "unit": "mg"}]}
{"smiles": "O.O.O.O.O.O.O=C([O-])CCC(=O)[O-].[Na+].[Na+]", "note": "[SODIUM SUCCINATE-2Na 6H20]", "values": [{"measurement": "Risk Assessment Category", "setting": "[1]; [9]", "value": 2}, {"measurement": "Intakes for a 65 kg adult below NOAEL", "setting": "[2]; NOAEL from 2 year rat study", "value": "are >1000 fold below"}, {"measurement": "Maximum Estimated Exposure per 100 g serving", "setting": "[3]", "value": 40, "unit": "mg"}]}
{"smiles": "COc1ccc(S(=O)(=O)N(CCO)c2ccccc2CN(C)C/C=C/c2ccc(Cl)cc2)cc1", "note": "[KN93]", "values": [{"measurement": "Formation of polynucleated myotubes", "setting": "primary mouse myoblasts [4]", "value": "suppressed"}, {"measurement": "CaMKII activation (p-CaMKII T287)", "setting": "CaMKII", "value": "suppressed CaMKII activation"}, {"measurement": "Differentiation (percent of MYOG positive nuclei) on co-treatment with ERKi", "setting": "primary mouse myoblasts [5]", "value": "remained unaffected"}, {"measurement": "ERKi-induced elevation of Mymk expression", "setting": "primary mouse myoblasts [6]", "value": "partially suppressed"}, {"measurement": "Cell motility compared to ERKi-treated cells", "setting": "primary mouse myoblasts [7]", "value": "unchanged"}, {"measurement": "Cell cycle arrest (pH3 staining, p21 and p27 expression) compared to ERKi alone", "setting": "primary mouse myoblasts [8]", "value": "did not affect cell cycle arrest"}]}
{"smiles": "O=C(O)CCC(=O)O", "note": "[SUCCINIC ACID]", "values": [{"measurement": "Intakes for a 65 kg adult below NOAEL", "setting": "[2]; NOAEL from 2 year rat study", "value": "adult are 257-fold"}, {"measurement": "Maximum Estimated Exposure per 100 g serving", "setting": "[3]", "value": 200, "unit": "mg"}]}
